The values that follow come from US8183239B2, “Substituted piperazines and piperidines as modulators of the neuropeptide Y2 receptor” (Janssen Pharmaceutica NV, priority 2005, dated 2012).

For the experiment, the target named is T1, Y2 receptors (Homo sapiens, UniProt P49146).
T1 construct: endogenous in cells; host or cells: KAN-Ts cells (membranes)
T1 sequence (P49146 1-381): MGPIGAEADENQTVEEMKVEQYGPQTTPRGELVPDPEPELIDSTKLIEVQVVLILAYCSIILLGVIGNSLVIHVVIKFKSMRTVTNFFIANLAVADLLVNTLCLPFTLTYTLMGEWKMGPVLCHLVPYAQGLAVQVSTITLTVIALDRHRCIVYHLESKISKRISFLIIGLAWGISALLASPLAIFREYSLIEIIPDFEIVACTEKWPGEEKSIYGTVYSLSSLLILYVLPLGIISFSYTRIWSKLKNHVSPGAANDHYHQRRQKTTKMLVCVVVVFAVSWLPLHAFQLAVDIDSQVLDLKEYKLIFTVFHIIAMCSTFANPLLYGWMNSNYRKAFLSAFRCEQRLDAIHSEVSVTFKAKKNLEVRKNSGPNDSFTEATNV
Description: Radioligand binding assay ([125I]PYY, KAN-Ts cell membranes). To be noted: average of results, read-out: IC50. As for the experimental part: Radioligand Binding Assay
KAN-Ts endogenously expressing Y2 receptors were used for the radioligand binding assay. Cells were grown to confluence on 150 cm^2 tissue culture plates, washed with phosphate-buffered saline (PBS), and scraped into 50 mL tubes. After centrifugation, the supernatant was aspirated, and the pellets frozen and stored at −80° C. Thawed pellets were homogenized with a polytron tissue grinder for 15 sec in 20 mM Tris-HCl, 5 mM EDTA. The homogenate was centrifuged at 800×g for 5 min and the collected supernatant was recentrifuged at 25000×g for 25 min. The resulting pellet was resuspended in binding buffer (20 mM HEPES, 120 mM NaCl, 0.22 mM KH2PO4, 1.3 mM CaCl2, 0.8 mM MgSO4). Membranes were incubated with [^125I]PYY (80 pM) in the presence or absence of test compound for 1 h at rt. The reaction was stopped by filtration through GF/C filter plates pre-soaked in 0.3% polyethylenimine and subsequently washed with Tris 50 mM, 5 mM EDTA buffer. Plates were dried for 1 h in a 55° C. oven, scintillation fluid was added and the radioactivity was counted in a Packard TopCount. Specific binding to the NPY receptor subtypes was determined by radioactivity that was bound in the presence of […]. Each binding experiment was repeated three to eight times, each in duplicate. IC50 values (i.e. concentration of unlabelled peptide or antagonist required to compete for 50% of specific binding to the radioligand) were calculated using the GraphPad Prism software (GraphPad Software Inc., San Diego Calif.) with a fit to a sigmoidal dose response curve. Data for compounds tested are presented in Tables 1 and 2 as an average of results obtained.

Where two headings read alike, the source gives them in different places.

Consider `CCC(CC)C(=O)Nc1ccc(N2CCN(C(C(=O)OC)c3ccccc3)C(C(=O)OC)C2)c(F)c1` (single isomer, unassigned; diastereomer 1) [Example 269, 4-[4-(2-Ethyl-butyrylamino)-2-fluoro-phenyl]-1-(methoxycarbonyl-phenyl-methyl)-piperazine-2-carboxylic acid methyl ester (diastereomer 1)], for which the IC50 (Table 2, [125I]PYY 80 pM) came to 2300 nM.

For the compound `CCC(CC)C(=O)Nc1ccc(N2CCN(C(C(=O)OC)c3ccccc3)C(C(=O)OC)C2)c(F)c1` (single isomer, unassigned; diastereomer 2) [Example 265, 4-[4-(2-Ethyl-butyrylamino)-2-fluoro-phenyl]-1-(methoxycarbonyl-phenyl-methyl)-piperazine-2-carboxylic acid methyl ester (diastereomer 2)], for the setting “Table 2, [125I]PYY 80 pM”, the IC50 worked out at 600 nM.

Consider `CC[C@H](C)C(=O)Nc1ccc(N2CCC(C(C(=O)N(CC)CC)c3ccccc3)CC2)c(C#N)c1` (stereo in doubt) [Example 218, N-{3-Cyano-4-[4-(diethylcarbamoyl-phenyl-methyl)-piperidin-1-yl]-phenyl}-2-methyl-butyramide], for which the IC50 (Table 2, [125I]PYY 80 pM) was found to be 30 nM.

On to `CCC(CC)C(=O)Nc1ccc(N2CCN(C(C(=O)N3CCCC3)c3ccccc3)CC2)c(F)c1` (stereo not drawn) [Example 1, 2-Ethyl-N-{3-fluoro-4-[4-(2-oxo-1-phenyl-2-pyrrolidin-1-yl-ethyl)-piperazin-1-yl]-phenyl}-butyramide], for which the IC50 (Table 1, [125I]PYY 80 pM) is 58 nM.

Take `CCC(CC)C(=O)Nc1ccc(N2CCN(Cc3ccccc3C(=O)OC)CC2)c(F)c1` [Example 2, 2-{4-[4-(2-Ethyl-butyrylamino)-2-fluoro-phenyl]-piperazin-1-ylmethyl}-benzoic acid methyl ester]: the IC50 (Table 1, [125I]PYY 80 pM) amounted to 2350 nM.

With `CCC(CC)C(=O)Nc1ccc(N2CCN(Cc3cccc(C(=O)N4CCOCC4)c3)CC2)c(F)c1` [Example 3, 2-Ethyl-N-(3-fluoro-4-{4-[3-(morpholine-4-carbonyl)-benzyl]-piperazin-1-yl}-phenyl)-butyramide], where the note is “Table 1, [125I]PYY 80 pM”, the IC50 was 560 nM.

As to `CCC(CC)C(=O)Nc1ccc(N2CCN(Cc3ccccc3C(=O)N(CC)CC)CC2)c(F)c1` [Example 4, N,N-Diethyl-2-{4-[4-(2-ethyl-butyrylamino)-2-fluoro-phenyl]-piperazin-1-ylmethyl}-benzamide], the IC50 (Table 1, [125I]PYY 80 pM) worked out at 370 nM.

Turning to `CCC(CC)C(=O)Nc1ccc(N2CCN(Cc3ccccc3C(=O)N3CCOCC3)CC2)c(F)c1` [Example 5, 2-Ethyl-N-(3-fluoro-4-{4-[2-(morpholine-4-carbonyl)-benzyl]-piperazin-1-yl}-phenyl)-butyramide], the IC50 (Table 1, [125I]PYY 80 pM) was 1900 nM.

For the compound `CCC(CC)C(=O)Nc1ccc(N2CCN(C(C(=O)N(CC)CC)c3ccccc3)CC2)c(F)c1` (stereo not drawn) [Example 6, N-{4-[4-(Diethylcarbamoyl-phenyl-methyl)-piperazin-1-yl]-3-fluoro-phenyl}-2-ethyl-butyramide], the IC50 (Table 1, [125I]PYY 80 pM) was found to be 71 nM.

Regarding `CCNC(=O)C(c1ccccc1)N1CCN(c2ccc(NC(=O)C(CC)CC)cc2F)CC1` (stereo not drawn) [Example 7, 2-Ethyl-N-{4-[4-(ethylcarbamoyl-phenyl-methyl)-piperazin-1-yl]-3-fluoro-phenyl}-butyramide], the 50% inhibitory concentration (IC50) (Table 1, [125I]PYY 80 pM) amounted to 377 nM.

In the case of `CCN(CC)C(=O)C(c1ccccc1)C1CCN(c2ccc(NC(=O)Nc3c(C)noc3C)cc2F)CC1` (stereo not drawn) [Example 8, 2-(1-{4-[3-(3,5-Dimethyl-isoxazol-4-yl)-ureido]-2-fluoro-phenyl}-piperidin-4-yl)-N,N-diethyl-2-phenyl-acetamide], where the note is “Table 1, [125I]PYY 80 pM”, the IC50 worked out at 10 nM.

`CCN(CC)C(=O)C(c1ccccc1)C1CCN(c2ccc(NC(=O)Cc3c(C)noc3C)cc2F)CC1` (stereo not drawn) [Example 9, 2-(1-{4-[2-(3,5-Dimethyl-isoxazol-4-yl)-acetylamino]-2-fluoro-phenyl}-piperidin-4-yl)-N,N-diethyl-2-phenyl-acetamide]: the IC50 (Table 1, [125I]PYY 80 pM) turned out to be 14 nM.

With `CCC(CC)C(=O)Nc1ccc(N2CCC(C(C(=O)N(CC)CC)c3ccccc3)CC2)c(F)c1` (stereo not drawn) [Example 11, N-{4-[4-(Diethylcarbamoyl-phenyl-methyl)-piperidin-1-yl]-3-fluoro-phenyl}-2-ethyl-butyramide], for the setting “Table 1, [125I]PYY 80 pM”, the IC50 worked out at 12 nM.

On to `CCN(CC)C(=O)C(c1ccccc1)C1CCN(c2ccc(NC(=O)c3c(C)noc3C)cc2F)CC1` (stereo not drawn) [Example 12, 3,5-Dimethyl-isoxazole-4-carboxylic acid {4-[4-(diethylcarbamoyl-phenyl-methyl)-piperidin-1-yl]-3-fluoro-phenyl}-amide], for which the IC50 (Table 1, [125I]PYY 80 pM) was 26 nM.

With `CCNC(=O)C(c1ccccc1)C1CCN(c2ccc(NC(=O)Cc3c(C)noc3C)cc2F)CC1` (stereo not drawn) [Example 13, 2-(1-{4-[2-(3,5-Dimethyl-isoxazol-4-yl)-acetylamino]-2-fluoro-phenyl}-piperidin-4-yl)-N-ethyl-2-phenyl-acetamide], the IC50 (Table 1, [125I]PYY 80 pM) was 58 nM.

Consider `CCNC(=O)C(c1ccccc1)C1CCN(c2ccc(NC(=O)C(CC)CC)cc2F)CC1` (stereo not drawn) [Example 14, 2-Ethyl-N-{4-[4-(ethylcarbamoyl-phenyl-methyl)-piperidin-1-yl]-3-fluoro-phenyl}-butyramide], for which the IC50 (Table 1, [125I]PYY 80 pM) came out at 112 nM.

In the case of `CCNC(=O)C(c1ccccc1)C1CCN(c2ccc(NC(=O)Nc3c(C)cccc3C)cc2F)CC1` (stereo not drawn) [Example 15, 2-(1-{4-[3-(2,6-Dimethyl-phenyl)-ureido]-2-fluoro-phenyl}-piperidin-4-yl)-N-ethyl-2-phenyl-acetamide], the IC50 (Table 1, [125I]PYY 80 pM) worked out at 162 nM.

Take `CCCC(CCC)C(=O)Nc1ccc(N2CCC(C(C(=O)NCC)c3ccccc3)CC2)c(F)c1` (stereo not drawn) [Example 16, 2-Propyl-pentanoic acid {4-[4-(ethylcarbamoyl-phenyl-methyl)-piperidin-1-yl]-3-fluoro-phenyl}-amide]: under “Table 1, [125I]PYY 80 pM”, the IC50 came to 280 nM.

On to `CCNC(=O)C(c1ccccc1)C1CCN(c2ccc(NC(=O)NCc3ccc(F)cc3)cc2F)CC1` (stereo not drawn) [Example 17, N-Ethyl-2-(1-{2-fluoro-4-[3-(4-fluoro-benzyl)-ureido]-phenyl}-piperidin-4-yl)-2-phenyl-acetamide], for which the IC50 (Table 1, [125I]PYY 80 pM) amounted to 1000 nM.

Take `CCNC(=O)C(c1ccccc1)C1CCN(c2ccc(NC(=O)C(C)C)cc2)CC1` (stereo not drawn) [Example 18, N-{4-[4-(Ethylcarbamoyl-phenyl-methyl)-piperidin-1-yl]-phenyl}-isobutyramide]: for the setting “Table 1, [125I]PYY 80 pM”, the 50% inhibitory concentration (IC50) was found to be 4000 nM.

As to `CCNC(=O)C(c1ccccc1)C1CCN(c2ccc(NC(=O)CC3CCCCC3)cc2F)CC1` (stereo not drawn) [Example 19, 2-{1-[4-(2-Cyclohexyl-acetylamino)-2-fluoro-phenyl]-piperidin-4-yl}-N-ethyl-2-phenyl-acetamide], the IC50 (Table 1, [125I]PYY 80 pM) was found to be 10000 nM.

As for `CCN(CC)C(=O)C(c1ccccc1)N1CCN(c2ccc(NC(=O)Nc3c(C)noc3C)cc2F)CC1` (stereo not drawn) [Example 20, 2-(4-{4-[3-(3,5-Dimethyl-isoxazol-4-yl)-ureido]-2-fluoro-phenyl}-piperazin-1-yl)-N,N-diethyl-2-phenyl-acetamide], the IC50 (Table 1, [125I]PYY 80 pM) stood at 16 nM.

Consider `CCN(CC)C(=O)C(c1ccccc1)N1CCN(c2ccc(NC(=O)Cc3c(C)noc3C)cc2F)CC1` (stereo not drawn) [Example 21, 2-(4-{4-[2-(3,5-Dimethyl-isoxazol-4-yl)-acetylamino]-2-fluoro-phenyl}-piperazin-1-yl)-N,N-diethyl-2-phenyl-acetamide], for which the IC50 (Table 1, [125I]PYY 80 pM) amounted to 20 nM.

Take `CCN(CC)C(=O)C(c1ccccc1)N1CCN(c2ccc(NC(=O)c3c(C)noc3C)cc2F)CC1` (stereo not drawn) [Example 22, 3,5-Dimethyl-isoxazole-4-carboxylic acid {4-[4-(diethylcarbamoyl-phenyl-methyl)-piperazin-1-yl]-3-fluoro-phenyl}-amide]: the IC50 (Table 1, [125I]PYY 80 pM) was 26 nM.

On to `CCNC(=O)C(c1ccccc1)N1CCN(c2ccc(NC(=O)Nc3c(C)noc3C)cc2F)CC1` (stereo not drawn) [Example 23, 2-(4-{4-[3-(3,5-Dimethyl-isoxazol-4-yl)-ureido]-2-fluoro-phenyl}-piperazin-1-yl)-N-ethyl-2-phenyl-acetamide], for which, under “Table 1, [125I]PYY 80 pM”, the IC50 amounted to 42 nM.

Consider `CCNC(=O)C(c1ccccc1)N1CCN(c2ccc(NC(=O)Cc3c(C)noc3C)cc2F)CC1` (stereo not drawn) [Example 24, 2-(4-{4-[2-(3,5-Dimethyl-isoxazol-4-yl)-acetylamino]-2-fluoro-phenyl}-piperazin-1-yl)-N-ethyl-2-phenyl-acetamide], for which the IC50 (Table 1, [125I]PYY 80 pM) amounted to 176 nM.

Take `CCNC(=O)C(c1ccccc1)N1CCN(c2ccc(NC(=O)Nc3cc(C)ccc3C)cc2F)CC1` (stereo not drawn) [Example 25, 2-(4-{4-[3-(2,5-Dimethyl-phenyl)-ureido]-2-fluoro-phenyl}-piperazin-1-yl)-N-ethyl-2-phenyl-acetamide]: the IC50 (Table 1, [125I]PYY 80 pM) was 260 nM.
